Source: patent US20220213092A1, “BICYCLIC PYRAZOLE BRUTON'S TYROSINE KINASE INHIBITORS” (AbbVie Inc., priority 2020, published 2022)

Tests used:
BTK = target: T1, BTK (Homo sapiens, UniProt Q06187); test: BTK kinase electrophoretic mobility shift assay (MSA); assay type: biochemical; settings: 50 μM ATP, 0.5 nM BTK enzyme (Nanosyn-293HEK, WT), 3 hours at 25° C.; all examples except 50, 51, 62 and 63; read-out: BTK IC50
T1 construct: purchased Nanosyn, Santa Clara, Calif; host or cells: 293HEK

[1] = target: T2, Phosphorylation of Y223 of BTK (Homo sapiens, UniProt Q06187); test: Whole blood compound screening, phosphorylation of Y223 site of BTK (MSD assay); assay type: cell-based; settings: healthy human whole blood, 2 hours at 37° C., 3 separate donors; read-out: WB BTK-pY223 EC50
T2 construct: host or cells: healthy human whole blood, 3 donors
T2 sequence (Q06187 whole entry): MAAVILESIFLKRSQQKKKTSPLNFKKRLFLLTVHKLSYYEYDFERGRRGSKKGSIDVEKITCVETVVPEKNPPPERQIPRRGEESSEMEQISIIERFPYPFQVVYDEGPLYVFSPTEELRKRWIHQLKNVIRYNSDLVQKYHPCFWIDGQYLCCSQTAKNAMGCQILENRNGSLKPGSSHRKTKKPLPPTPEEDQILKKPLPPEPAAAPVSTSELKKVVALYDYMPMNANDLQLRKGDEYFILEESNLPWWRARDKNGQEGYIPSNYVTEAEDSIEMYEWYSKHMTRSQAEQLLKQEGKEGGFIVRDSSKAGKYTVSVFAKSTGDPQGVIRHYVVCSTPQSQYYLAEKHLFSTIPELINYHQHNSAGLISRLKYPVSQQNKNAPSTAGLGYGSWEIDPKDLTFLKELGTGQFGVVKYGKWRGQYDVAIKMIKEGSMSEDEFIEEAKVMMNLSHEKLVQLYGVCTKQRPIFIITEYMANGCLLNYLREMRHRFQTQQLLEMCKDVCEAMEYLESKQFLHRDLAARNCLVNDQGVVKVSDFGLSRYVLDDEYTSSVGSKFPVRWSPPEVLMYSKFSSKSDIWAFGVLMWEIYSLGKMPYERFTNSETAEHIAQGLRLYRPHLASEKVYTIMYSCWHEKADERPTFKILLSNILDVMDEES
Experimental: Healthy human whole blood (WB) was collected from […]™ Technologies or […]® in sodium heparinized tubes. Whole blood was stored at ambient temperature to avoid coagulation. Each compound was tested in 3 separate donors. Compound stock solutions (10 mM) were used to generate dose titration (8 concentrations, starting concentration 10 μM, 1:4 dilution) in appropriate volume of dimethyl sulfoxide (0.2%). Whole blood was incubated with compounds in 96-well plates for 2 hours in tissue culture incubators at 37° C. under a 5% CO2 atmosphere. The whole blood was lysed in equal volume of lysis buffer (Cell Signaling Technology®, Danvers, Mass.) containing complete protease inhibitor tablet, PhosSTOP™ tablet, sodium orthovanadate and sodium fluoride and phenylmethanesulfonyl fluoride solution. The lysed whole blood was then frozen at −80° C. for overnight.
Phosphorylation of Y223 of BTK was measured using an MSD assay (Meso Scale Diagnostics, LLC, Rockville, Md.). The thawed lysed whole blood was incubated with the capturing antibody rabbit anti-human BTK (D3H5) (Cell Signaling Technology, Danvers, Mass.) at 4° C. overnight. After washing out the unbound samples, the detection antibody biotinylated rabbit anti-pY223-BTK(D9T6H) (Cell Signaling Technology®, Danvers, Mass.) was added to the plates. After washing out the unbound antibodies, SULFO-TAG Streptavidin (Meso Scale Diagnostics, LLC, Rockville, Md.) was used for detection on Meso Sector S600 (Meso Scale Diagnostics, LLC, Rockville, Md.).
The EC50 values were determined using software from Dotmatics. The activity of exemplary compounds is illustrated below.

T1 sequence (Q06187 whole entry): as above

Row | Structure (SMILES) | IC50 (BTK) [nM] | EC50 [1] [nM]
1 | C=CC(=O)N1CCN([C@@H]2CCNc3c2nn(-c2ccc(Oc4ccccc4C#N)cc2)c3C(N)=O)CC1 [Example 69, (7R)-2-[4-(2-cyanophenoxy)phenyl]-7-[4-(prop-2-enoyl)piperazin-1-yl]-4,5,6,7-tetrahydro-2H-pyrazolo[4,3-b]pyridine-3-carboxamide] | 2.18 | 29.2
2 | C=CC(=O)N1CCN([C@@H]2CCNc3c2nn(-c2ccc(Oc4ccc(F)cc4F)cc2)c3C(N)=O)CC1 [Example 70, (7R)-2-[4-(2,4-difluorophenoxy)phenyl]-7-[4-(prop-2-enoyl)piperazin-1-yl]-4,5,6,7-tetrahydro-2H-pyrazolo[4,3-b]pyridine-3-carboxamide] | 7.09 | 239
3 | C=CC(=O)N1CCN([C@@H]2CCNc3c2nn(-c2ccc(Oc4ccc(F)cc4)cc2)c3C(N)=O)CC1 [Example 71, (7R)-2-[4-(4-fluorophenoxy)phenyl]-7-[4-(prop-2-enoyl)piperazin-1-yl]-4,5,6,7-tetrahydro-2H-pyrazolo[4,3-b]pyridine-3-carboxamide] | 22.8 | 279
4 | C=CC(=O)N1C2CC1CN([C@H]1CCNc3c1nn(-c1ccc(Oc4ccccc4)cc1)c3C(N)=O)C2 [Example 72, (7S)-2-(4-phenoxyphenyl)-7-[6-(prop-2-enoyl)-3,6-diazabicyclo[3.1.1]heptan-3-yl]-4,5,6,7-tetrahydro-2H-pyrazolo[4,3-b]pyridine-3-carboxamide] | 7.84 | 21.7
5 | C=CC(=O)N1C2CC1CN([C@@H]1CCNc3c1nn(-c1ccc(Oc4ccccc4)cc1)c3C(N)=O)C2 [Example 73, (7R)-2-(4-phenoxyphenyl)-7-[6-(prop-2-enoyl)-3,6-diazabicyclo[3.1.1]heptan-3-yl]-4,5,6,7-tetrahydro-2H-pyrazolo[4,3-b]pyridine-3-carboxamide] | 15.7 | 255
6 | C=CC(=O)N1CCN([C@@H]2CCNc3c2nn(-c2ccc(Oc4cc(F)ccc4F)cc2)c3C(N)=O)CC1 [Example 74, (7R)-2-[4-(2,5-difluorophenoxy)phenyl]-7-[4-(prop-2-enoyl)piperazin-1-yl]-4,5,6,7-tetrahydro-2H-pyrazolo[4,3-b]pyridine-3-carboxamide] | 1.51 | 56
7 | C=CC(=O)N1CC(N2CCNc3c2nn(-c2ccc(Oc4ccccc4F)cc2)c3C(N)=O)C1 [Example 75, 2-[4-(2-fluorophenoxy)phenyl]-7-[1-(prop-2-enoyl)azetidin-3-yl]-4,5,6,7-tetrahydro-2H-pyrazolo[3,4-b]pyrazine-3-carboxamide] | 1.14 | 61
8 | C=CC(=O)N1CC(N2CCNc3c2nn(-c2ccc(Oc4cccc(F)c4F)cc2)c3C(N)=O)C1 [Example 76, 2-[4-(2,3-difluorophenoxy)phenyl]-7-[1-(prop-2-enoyl)azetidin-3-yl]-4,5,6,7-tetrahydro-2H-pyrazolo[3,4-b]pyrazine-3-carboxamide] | 0.968 | 85.5
9 | C=CC(=O)N1CCN([C@@H]2CCNc3c2nn(-c2ccc(Oc4cccc(F)c4F)cc2)c3C(N)=O)CC1 [Example 77, (7R)-2-[4-(2,3-difluorophenoxy)phenyl]-7-[4-(prop-2-enoyl)piperazin-1-yl]-4,5,6,7-tetrahydro-2H-pyrazolo[4,3-b]pyridine-3-carboxamide] | 0.533 | 31.5
10 | C=CC(=O)N1CCN([C@@H]2CCNc3c2nn(-c2ccc(Oc4cccc(C5CC5)c4)cc2)c3C(N)=O)CC1 [Example 78, (7R)-2-[4-(3-cyclopropylphenoxy)phenyl]-7-[4-(prop-2-enoyl)piperazin-1-yl]-4,5,6,7-tetrahydro-2H-pyrazolo[4,3-b]pyridine-3-carboxamide] | 0.671 | 57.9
11 | C=CC(=O)N1CC(N2CCNc3c2nn(-c2ccc(Oc4ccc(F)cc4F)cc2)c3C(N)=O)C1 [Example 81, 2-[4-(2,4-difluorophenoxy)phenyl]-7-[1-(prop-2-enoyl)azetidin-3-yl]-4,5,6,7-tetrahydro-2H-pyrazolo[3,4-b]pyrazine-3-carboxamide] | 5.24 | 75.1
12 | C=CC(=O)N1CCN([C@@H]2CCNc3c2nn(-c2ccc(Oc4ccccc4)cc2)c3C(N)=O)CC12CC2 [Example 82, (7R)-2-(4-phenoxyphenyl)-7-[4-(prop-2-enoyl)-4,7-diazaspiro[2.5]octan-7-yl]-4,5,6,7-tetrahydro-2H-pyrazolo[4,3-b]pyridine-3-carboxamide] | 0.515 | 44.1
13 | C=CC(=O)N1CCN([C@H]2CCNc3c2nn(-c2ccc(Oc4ccccc4)cc2)c3C(N)=O)CC12CC2 [Example 83, (7S)-2-(4-phenoxyphenyl)-7-[4-(prop-2-enoyl)-4,7-diazaspiro[2.5]octan-7-yl]-4,5,6,7-tetrahydro-2H-pyrazolo[4,3-b]pyridine-3-carboxamide] | 66.6 | 1730
14 | C=CC(=O)N1CCC(O)(C2CCNc3c2nn(-c2ccc(Oc4ccccc4)cc2)c3C(N)=O)CC1 (stereo not shown) [Example 84, 7-[4-hydroxy-1-(prop-2-enoyl)piperidin-4-yl]-2-(4-phenoxyphenyl)-4,5,6,7-tetrahydro-2H-pyrazolo[4,3-b]pyridine-3-carboxamide] | 1.4 | 45.6
15 | C=CC(=O)N1CCN([C@@H]2CCNc3c2nn(-c2ccc(Oc4ccc(OC(F)(F)F)cc4)cc2)c3C(N)=O)CC1 [Example 85, (7R)-7-[4-(prop-2-enoyl)piperazin-1-yl]-2-{4-[4-(trifluoromethoxy)phenoxy]phenyl}-4,5,6,7-tetrahydro-2H-pyrazolo[4,3-b]pyridine-3-carboxamide] | 107 | 2030
16 | C=CC(=O)N1CCN([C@@H]2CCNc3c2nn(-c2ccc(Oc4ccccc4C)cc2)c3C(N)=O)CC1 [Example 86, (7R)-2-[4-(2-methylphenoxy)phenyl]-7-[4-(prop-2-enoyl)piperazin-1-yl]-4,5,6,7-tetrahydro-2H-pyrazolo[4,3-b]pyridine-3-carboxamide] | 0.706 | 315
17 | C=CC(=O)N1CCN([C@@H]2CCNc3c2nn(-c2ccc(Oc4ccc(OC)cc4)cc2)c3C(N)=O)CC1 [Example 87, (7R)-2-[4-(4-methoxyphenoxy)phenyl]-7-[4-(prop-2-enoyl)piperazin-1-yl]-4,5,6,7-tetrahydro-2H-pyrazolo[4,3-b]pyridine-3-carboxamide] | 3.32 | 162
18 | C=CC(=O)N1CCN([C@@H]2CCNc3c2nn(-c2ccc(Oc4cccc(C)c4)cc2)c3C(N)=O)CC1 [Example 88, (7R)-2-[4-(3-methylphenoxy)phenyl]-7-[4-(prop-2-enoyl)piperazin-1-yl]-4,5,6,7-tetrahydro-2H-pyrazolo[4,3-b]pyridine-3-carboxamide] | 0.797 | 225
19 | C=CC(=O)N1CCN([C@@H]2CCNc3c2nn(-c2ccc(Oc4cccc(OC(F)(F)F)c4)cc2)c3C(N)=O)CC1 [Example 89, (7R)-7-[4-(prop-2-enoyl)piperazin-1-yl]-2-{4-[3-(trifluoromethoxy)phenoxy]phenyl}-4,5,6,7-tetrahydro-2H-pyrazolo[4,3-b]pyridine-3-carboxamide] | 1.75 | 525
20 | C=CC(=O)N1CCN([C@@H]2CCNc3c2nn(-c2ccc(Oc4ccccc4OC(F)(F)F)cc2)c3C(N)=O)CC1 [Example 90, (7R)-7-[4-(prop-2-enoyl)piperazin-1-yl]-2-{4-[2-(trifluoromethoxy)phenoxy]phenyl}-4,5,6,7-tetrahydro-2H-pyrazolo[4,3-b]pyridine-3-carboxamide] | 1.29 | 933
21 | C=CC(=O)N1CCN([C@@H]2CCNc3c2nn(-c2ccc(Oc4cccc(OC)c4)cc2)c3C(N)=O)CC1 [Example 91, (7R)-2-[4-(3-methoxyphenoxy)phenyl]-7-[4-(prop-2-enoyl)piperazin-1-yl]-4,5,6,7-tetrahydro-2H-pyrazolo[4,3-b]pyridine-3-carboxamide] | 1.66 | 399
22 | C=CC(=O)N1CCN([C@@H]2CCNc3c2nn(-c2ccc(Oc4ccc(C)cc4)cc2)c3C(N)=O)CC1 [Example 92, (7R)-2-[4-(4-methylphenoxy)phenyl]-7-[4-(prop-2-enoyl)piperazin-1-yl]-4,5,6,7-tetrahydro-2H-pyrazolo[4,3-b]pyridine-3-carboxamide] | 2.42 | 608
23 | C=CC(=O)N1CCN([C@@H]2CCNc3c2nn(-c2ccc(Oc4ccccc4OC)cc2)c3C(N)=O)CC1 [Example 93, (7R)-2-[4-(2-methoxyphenoxy)phenyl]-7-[4-(prop-2-enoyl)piperazin-1-yl]-4,5,6,7-tetrahydro-2H-pyrazolo[4,3-b]pyridine-3-carboxamide] | 5.09 | 400
